Test results as given in patent US20190365776A1, “THERAPEUTIC AGENT FOR OCULAR FUNDUS DISEASE” (KYUSHU UNIVERSITY, NATIONAL UNIVERSITY CORPORATION, priority 2013, published 2019).

What was measured:
[1] = test system: mice CNV (Choroidal Neovascularization) model; assay: Mice CNV (choroidal neovascularization) model, laser photocoagulation; type: in vivo, C57BL/6JJcl mice; details: ocular instillation three times a day, day 0 to day 7, control 109177±26399
Experimental: The effectiveness of the compound 1 in a mice CNV model known as a model of age-related macular degeneration or the like was examined in the following manner.
Compound 1 solutions prepared in the same manner as in Example 1: 0.4% solution, 0.8% solution (instillation volume: 20 μL)
Test animals: C57BL/6JJcl mice (6- to 10-week old, sex: male, 11 to 12 mice per group)
The preparation of a CNV model and evaluation were performed with reference to a literature (e.g., J. Leukoc. Biol. 2003; 74: 25-32, or Am. J. Pathol. 1998; 153: 1641-1646). More specifically, each of the mice was given tropicamide by ocular instillation to cause mydriasis, anesthetized by intraperitoneal administration of 100 mg/kg of Ketalar and 10 mg/kg of Selactar, and subjected to photocoagulation at 4 spots per eye. The photocoagulation was performed by krypton laser irradiation (75-μm spot size, 0.1 seconds duration, 200 mW) with a slit-lamp delivery system using a cover glass as a contact lens. Test groups were a saline instillation group (control), a 0.4% compound 1 solution instillation group, and a 0.8% compound 1 solution instillation group. […] More specifically, a spot with bleeding or tissue destruction was excluded, the CNV volume of each spot adopted was calculated by NIS-Elements AR Version 4.13, and then an average value (μm^3) per eye was calculated.

[2] = test system: b-END3 (bEND.3) mouse brain microvascular endothelial cells; assay: Tight junction test: Claudin-5 immunostaining in b-END3 cells; type: cell-based; details: pretreatment 3 μM or 30 μM, 3 hours; VEGF 25 ng/mL or IL-6 10 ng/mL, 24 hours
Experimental: According to a conventional method, b-END3 (bEND.3: ATCC CRL-2299™) cells, which are mouse brain microvascular endothelial cells, were subcultured in 3.5 cm dishes (9×10^5 cells/dish), and a test was started from day 6 after subculture. […]
The cells after the test were subjected to immunostaining according to the following procedure to evaluate the expression of Claudin-5 or F-Actin. […] Then, a cover glass-sized cell sample was prepared by trimming with a cotton swab, enclosed with a Dako pen, blocked with 10% normal goat serum (10% normal goat serum ready-to-use (Invitrogen)) (30 min, ordinary temperature), and allowed to stand at 4° C. overnight. […]

## C[C@H]1CNCCCN1S(=O)(=O)c1cccc2cncc(F)c12 [compound 1, (S)-(−)-1-(4-fluoro-5-isoquinolinesulfonyl)-2-methyl-1,4-homopiperazine]
[1]; 0.4% solution
  CNV volume (mean±standard error, average per eye): 56408±9007 μm^3
[1]; 0.8% solution
  CNV volume (mean±standard error, average per eye): 88387±33678 μm^3
[2]
  Claudin-5 expression decreased by VEGF stimulation or IL-6 stimulation: improvement in Claudin-5 expression
